What was measured:
Assay type in all cases: cell-based, mouse
[1] = tested on: EC d4 (endothelial progenitor cells); assay: Western blot protein expression (densitometry); conditions: EC d4 48 h
Method: (§1) Total protein cell extracts were obtained upon sonication in RIPA buffer (EpiShearTM Probe sonicator, Active Motif [La Hulpe, Belgium]). Protein concentrations were determined using the DC Protein Assay (BioRad [Munich, Germany]). Extracts were supplemented with Roti®-Load buffer (Carl Roth GmbH [Karlsruhe, Germany]) followed by heating (95 °C for 5 min). 20 µg of protein was separated by SDS-PAGE and transferred onto nitrocellulose membrane. After blocking (5% non-fat milk in TBS/0.1% Tween 20 or 5% BSA in TBS/0.1% Tween 20) (1 h, RT) membrane was incubated with primary antibodies (1:500–5000; overnight, 4 °C). After washing with TBS/0.1% Tween 20, peroxidase-conjugated secondary antibody (1:2000) was added (2 h, RT) and bands were visualized using ChemiDoxTM Touch imaging system (BioRad, Munich, Germany).

mESC [2] = assay: Western blot protein expression (densitometry); conditions: mESC 24 h
Method: as §1

[3] = tested on: EC d6 (endothelial-like cells); assay: Western blot protein expression (densitometry); conditions: EC d6 24 h
Method: as §1

EC d4 = assay: DNA fiber spreading assay; conditions: EC d4 48 h; HU: 5 mM, 1 h
Method: (§2) To analyze DNA replication fork progression, the DNA fiber spreading assay was performed. Briefly, cells were pulse-labeled with 20 µM CldU (20 min, 37 °C, 5% C0_2) and immediately afterwards with 200 µM IdU (20 min, 37 °C, 5% C02). Cell suspension was applied onto glass slides followed by cell lysis (0.5% SDS, 200 mM Tris–HCl, 50 mM EDTA). After incubation (6 min, RT), slides were tilted upwards to stretch the fibers, dried 6 min lying horizontally flat and fixed (5 min, RT) in methanol: acetic acid (3:1). After drying (7 min, lying horizontally flat) slides were stored overnight in 70% ethanol (4 °C). The next day samples were incubated in 100% methanol (5 min, RT) followed by denaturation in 2.5 M HCl (1 h, RT) and blocking (5% BSA in PBS, 1 h, 37 °C). DNA Fibers were stained with rat anti-BrdU (1:40) for CldU detection and mouse anti-BrdU (1:70) for IdU detection (in 0.5% BSA/PBS; 1 h, RT). After washing (0.05% Tween 20 in PBS and PBS) incubation with secondary antibodies anti-rat 488 (1:400) and anti-mouse 555 (1:250) was performed (1 h, RT, 0.5% BSA in PBS). Following washing with 0.05% Tween 20 in PBS and PBS, the slides were mounted with Fluoroshield (Sigma [Steinheim, Germany]). DNA fibers were analyzed microscopically (Olympus BX43 fluorescence microscope [40 objective]). The length of CldU (green) and IdU (red) tract was measured using ImageJ software, analyzing 200 fibers per experimental condition.

EC d6 = assay: DNA fiber spreading assay; conditions: EC d6 24 h; HU: 5 mM, 1 h
Method: as §2

mESC [4] = assay: DNA fiber spreading assay; conditions: mESC 24 h; HU: 5 mM, 1 h
Method: as §2

## COc1cc([C@@H]2c3cc4c(cc3[C@@H](O[C@@H]3O[C@@H]5CO[C@@H](C)O[C@H]5[C@H](O)[C@H]3O)[C@H]3COC(=O)[C@H]23)OCO4)cc(OC)c1O [Eto, etoposide]
[1]; Eto lane of blot Fig 5D - B02
  CHK1 protein: 0.7 Fold of mESC
  RAD51 protein: 1.0 Fold of mESC
  p-CHK2 protein: 0.4 Fold of mESC
  p-KAP1 protein: 0.0 Fold of mESC
  p-RPA32 protein: 0.4 Fold of mESC
  p-p53 protein: 1.7 Fold of mESC
[1]; Eto lane of blot Fig 5D - Dox
  CHK1 protein: 1.6 Fold of mESC
  RAD51 protein: 0.1 Fold of mESC
  p-CHK2 protein: 0.5 Fold of mESC
  p-KAP1 protein: 0.0 Fold of mESC
  p-RPA32 protein: 0.5 Fold of mESC
  p-p53 protein: 4.8 Fold of mESC
[1]; Eto lane of blot Fig 5D - EST
  CHK1 protein: 0.7 Fold of mESC
  RAD51 protein: 1.2 Fold of mESC
  p-CHK2 protein: 1.2 Fold of mESC
  p-KAP1 protein: 0.0 Fold of mESC
  p-RPA32 protein: 0.4 Fold of mESC
  p-p53 protein: 3.0 Fold of mESC
mESC [2]; Eto lane of blot Fig 5D - B02
  CHK1 protein: 0.9 Fold of mESC
  RAD51 protein: 1.9 Fold of mESC
  p-CHK2 protein: 0.8 Fold of mESC
  p-KAP1 protein: 49.01 Fold of mESC
  p-RPA32 protein: 0.7 Fold of mESC
  p-p53 protein: 2.1 Fold of mESC
mESC [2]; Eto lane of blot Fig 5D - Dox
  CHK1 protein: 2.4 Fold of mESC
  RAD51 protein: 1.9 Fold of mESC
  p-CHK2 protein: 1.6 Fold of mESC
  p-KAP1 protein: 29.7 Fold of mESC
  p-RPA32 protein: 1.6 Fold of mESC
  p-p53 protein: 6.9 Fold of mESC
mESC [2]; Eto lane of blot Fig 5D - EST
  CHK1 protein: 1.3 Fold of mESC
  RAD51 protein: 2.4 Fold of mESC
  p-CHK2 protein: 1.3 Fold of mESC
  p-KAP1 protein: 36.8 Fold of mESC
  p-RPA32 protein: 1.0 Fold of mESC
  p-p53 protein: 3.7 Fold of mESC
mESC [2]; Fig 4H, Eto, Dox 1, B02, EST
  CHK1 protein: 1.0 Fold of mESC
  p-ATR protein: 1.6 Fold of mESC
  p-CHK1 protein: 2.3 Fold of mESC
  p-RPA32 protein: 1.2 Fold of mESC
  p-p53 protein: 6.1 Fold of mESC
[3]; Eto lane of blot Fig 5D - B02
  CHK1 protein: 0.37 Fold of mESC
  RAD51 protein: 0.38 Fold of mESC
  p-CHK2 protein: 0.04 Fold of mESC
  p-KAP1 protein: 0.00 Fold of mESC
  p-RPA32 protein: 0.04 Fold of mESC
  p-p53 protein: 1.45 Fold of mESC
[3]; Eto lane of blot Fig 5D - Dox
  CHK1 protein: 0.6 Fold of mESC
  RAD51 protein: 0.8 Fold of mESC
  p-CHK2 protein: 0.2 Fold of mESC
  p-KAP1 protein: 0.0 Fold of mESC
  p-RPA32 protein: 0.1 Fold of mESC
  p-p53 protein: 3.7 Fold of mESC
[3]; Eto lane of blot Fig 5D - EST
  CHK1 protein: 0.1 Fold of mESC
  RAD51 protein: 0.5 Fold of mESC
  p-CHK2 protein: 0.4 Fold of mESC
  p-KAP1 protein: 0.0 Fold of mESC
  p-RPA32 protein: < 0.1 Fold of mESC
  p-p53 protein: 2.0 Fold of mESC

## NC(=O)NO [HU, Hydroxyurea]
EC d4
  replication fork progression: decreased replication fork speed
EC d6
  replication fork progression: decreased replication fork speed
mESC [4]
  replication fork progression: decreased replication fork speed

Reference: PMC13308190, “Endothelial progenitor cell susceptibility to DNA damaging and DDR-modulating compounds determines endothelial differentiation accuracy” (Stem Cell Research & Therapy, 2026)
